Test results published in patent US20080058579A1, “Compositions and methods for treating disease utilizing a combination of radioactive therapy and cell-cycle inhibitors” (Angiotech International AG, priority 1999, published 2008).

System: PC3 human prostate cells
Experiment: In vivo treatment model using a locally administered cell cycle inhibitor with local radiation
Settings: FIG. 16; for percent reduction in tumor volume: one week after treatment
Excerpt: This animal model is used to determine the effectiveness of a locally administered cell cycle inhibitor (e.g., paclitaxel) in conjunction with a locally administered radiation source in treating a proliferative disease, specifically, a cancer. The relative change in tumor volume measured in tumor bearing mice receiving various treatments will be used to gauge the therapy's effectiveness relative to use of local radiation alone or locally administered cell cycle inhibitor alone.
The methods used are as follows. Cancer cells (specifically PC3) human prostate cells, American Type Culture Collection, Rockville Md.) are maintained in DMEM solution with 5% heat-inactivated fetal calf serum. Male SCID mice are inoculated with approximately 1×10^6 cells subcutaneously in the flank region. The tumor injection sites are followed by visual inspection or palpation. Tumor volume is measured using calipers. The tumor is allowed to grow until it reaches a treatable volume of 100-200 mm^3.
At this time the mice are treated as follows. Approximately six brachytherapy seeds are implanted adjacent to the tumor to deliver a local radiation dose of 25-40 Gy (I^125 radiation source). A polymeric paste (100 μl) containing 50 μg paclitaxel (0.5% w/w) is injected subcutaneously adjacent to or into the tumor. The following treatment groups were studied (10 mice per group). 1) Control paste without paclitaxel and non-radioactive (cold) seeds. 2) Control paste and radioactive seeds. 3) 0.5% w/w paclitaxel loaded paste and cold seeds. 4) 0.5% w/w paclitaxel loaded paste and radioactive seeds.
Tumor size is measured at twice-weekly intervals using calipers. An investigator blinded to the experimental groups will conduct the measurements. Caliper measured dimensions may be taken in two (length (L), width (W)) or three dimensions (Height (H)). […]
The animal data are analyzed as follows. The means and standard deviations of the tumor measurements are determined and plotted from the initial day of caliper measurement until the final measurement. […]

CC(=O)O[C@H]1C(=O)[C@@]2(C)[C@H]([C@H](OC(=O)c3ccccc3)[C@]3(O)C[C@H](OC(=O)[C@H](O)[C@@H](NC(=O)c4ccccc4)c4ccccc4)C(C)=C1C3(C)C)[C@]1(OC(C)=O)CO[C@@H]1C[C@@H]2O [paclitaxel]
tumor volume (one week after treatment with locally administered radiation (I-125) and locally administered paclitaxel, n=9 per treatment): decreased | percent reduction in tumor volume (only one of the two treatments (paclitaxel alone)): lesser reduction | percent reduction in tumor volume (paclitaxel paste (0.5% w/w) and I-125 seeds given in combination): greatest
